One may read the inhibition as the drop in the measured response relative to a control, in per cent. What is called IC50 is the concentration that inhibits the measured activity by half. By melting point is commonly meant the temperature of the solid-liquid transition.

Five molecules from patent US9884863B2, “STAT3 inhibitor” (Board of Regents, The University of Texas System, priority 2013, dated 2018) can be followed below.

Data set [1] deals with STAT3 promoter activity in MDA-MB-231 cells. Briefly: Transient transfection and dual luciferase reporter assay (pSTAT3-Luc). It counts as cell-based, human. The note with it: Homo sapiens, MDA-MB-231, read-out: inhibition of STAT3 promoter activity at 5 μM; 24 h, compared with control; Example 4 numbering. As for the experimental part:
MDA-MB-231 cells were pre-treated with niclosamide or 11 at different concentrations for 24 h. The STAT3 promoter activity in MDA-MB-231 cells was determined after transient transfecting with pSTAT3-Luc vector.
Transient Transfection and Dual Luciferase Reporter Assays. MBA-MB-231 cells were seeded in 24-well plate at a density of 5×10^4 cells/well in RPMI-1640 medium containing 10% FBS and 1% penicillin-streptomycin. Transient transfections were performed 4 h after plating, using the method described previously (Rees, D. C. et al., 2004; Shen, Q. et al., 2008). Total amount of DNA for transfections was 0.5 μg/well, including pSTAT3-Luc (95%, obtained from Panomics, Cat# LR0077) and internal control vector renilla (5%, from Promega, Madison, Wis., USA). 5 h after transfection, the cells were treated with compound […] for 24 h, then reporter activity was evaluated using dual luciferase reporter assay kit (Promega, Madison, Wis., USA) on an Omega™ Microplate Luminometer (BMG LABTECH Inc., NC, USA). Relative luciferase units were the ratio of the absolute activity of firefly luciferase to that of renilla luciferase. Experiments were conducted with triplicates and results are representatives of at least 3 independent experiments.
On the technique in general: In a reporter assay the amount or activity of a reporter protein is the signal.

The subject of another data set is MCF-7. Briefly: MTS cell proliferation assay, MCF-7. It counts as cell-based, human. The gist of the method: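 MCF-7 human breast cancer cells were exposed to test compounds at a range of concentrations, then proliferation was measured with the MTS reagent from Promega's CellTiter 96 AQueous Non-Radioactive Cell Proliferation Assay kit. After 1 hr at 37° C., OD at 550 nm was read on a 96-well iMark Microplate Absorbance Reader, with quadruplicate wells per concentration.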

The test system of another data set is Panc-1. Briefly: MTS cell proliferation assay, Panc-1. It counts as cell-based, human. The procedure:
(§1) Cancer cells (breast cancer cell lines MCF-7, MDA-MB-361, SKBR3 and MDA-MB-231, pancreatic cancer cell lines AsPC-1. BxPC3 and Panc-1) were seeded in 96-well plates at a density of 1000-2000 cells/well and treated with DMSO, 0.01, 0.1, 1, 5, 10, and […] of STAT3 individual inhibitors for 72 hrs. Proliferation was measured by treating cells with the 3-(4,5-dimethylthiazol-2-yl)-5-(3-carboxymethoxyphenyl)-2-(4-sulfophenyl)-2H-tetrazolium) (MTS) in a CellTiter 96t AQueous Non-Radioactive Cell Proliferation Assay kit from Promega, Madison, Wis., USA). Absorbance of all wells was determined by measuring OD at 550 nm after 1 hr incubation at 37° C. on a 96-well iMark™ Microplate Absorbance Reader (BioRad, Hercules, Calif.). Each individual compound was tested in quadruplicate wells for each concentration, and the results were reported as mean absorption±s.e.
(§2) In Vitro Determination of Effects of Synthesized Compounds on Cancer Cell Proliferation. Cancer cells (breast cancer cell lines MCF-7 and MDA-MB-231, pancreatic cancer cell lines AsPC-1 and Panc-1) were seeded in 96-well plates at a density of 2×10^3 cells/well and treated with DMSO, 0.01, 0.1, 1, 5, 10, and 100 μM of individual STAT3 inhibitors for 72 h. Proliferation was measured by treating cells with the 3-(4,5-dimethylthiazol-2-yl)-5-(3-carboxymethoxyphenyl)-2-(4-sulfophenyl)-2H-tetrazolium) (MTS) in a CellTiter 96t Aqueous Non-Radioactive Cell Proliferation Assay kit (Promega, Madison, Wis., USA). Absorbance of all wells was determined by measuring OD at 550 nm after 1 h incubation at 37° C. on a 96-well iMark™ Microplate Absorbance Reader (BioRad, Hercules, Calif.). Each individual compound was tested in quadruplicate wells for each concentration.
On the technique in general: Tetrazolium dyes change colour on reduction, which living cells bring about.

Another data set has as its system MDA-MB-231. As to the kind of experiment: MTS cell proliferation assay, MDA-MB-231. Type of data set: cell-based, human. Summed up:
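Cells are exposed to DMSO or STAT3 inhibitors at 0.01-100 μM for 72 h, or at 1, 5 and 10 μM. Proliferation is read by MTS absorbance at 550 or 560 nm after 1 h at 37 °C. Each concentration is run in quadruplicate wells.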

The test system of another data set is AsPC1. As to the kind of experiment: MTS cell proliferation assay, AsPC1. It counts as cell-based, human. As for the experimental part:
as §1, §2

The format of data set [2] is in vivo. The settings on record: mouse, in vivo, 150 mg/kg.
Procedure: Female nude mice at 4 to 6 wk of age were obtained from MDACC ERO facility. The mice were maintained in a barrier unit with 12 hours light-dark switch room and all materials were autoclaved. Freshly harvested MDA-MB-231 cells (2.5×10^6 cells per mouse, resuspended in 100 μl PBS) were injected into the 3rd mammary fat pad of the mice, and then mice were randomly assigned into control and treatment groups (≧6 mice per group). Treatment started when the xenograft mammary tumors reaches a volume of 200 mm^3. […] Mice were monitored daily for general health conditions (body weight, fur coat condition and posture) and toxicity (hair loss, skin rash, abdominal distension). […] Tumor volume was calculated as V=W^2×L/2, where L=longer diameter (mm) and W=width of short diameter (mm). […]
Female nude mice were obtained from MDACC and were used for orthotopic tumor studies at 4 to 6 weeks of age. […] Body weights and tumors volume were measured daily and tumor volume was calculated according to the formula V=0.5×L×W^2, where L=length (mm) and W=width (mm).
Twenty-two female nude mice (8 wks of age) were obtained from MDACC ERC Center. […] Body weights and tumors volume were measured daily and tumor volume calculated using the formula V=0.5×L×W^2, where L=length (mm) and W=width (mm) of xenograft tumors. Signs of toxicity were recorded individually. […]
Data set [3] has as its system MCF-7, MDA-MB-231, AsPC1 and Panc-1. Briefly: MTS proliferation assays, breast and pancreatic cancer cell line panel. The settings on record: Example 4 numbering. It counts as cell-based, human. The procedure: as §2
For a further data set, the system named is MDA-MB-361. Briefly: MTS cell proliferation assay, MDA-MB-361. The settings on record: Homo sapiens, ER-positive breast cancer, 72 hrs, >10 = no effect, read-out: IC50 MDA-MB-361 (Table 1). It counts as cell-based. The procedure: as §1
A further data set relates to BxPc-3H. Briefly: MTS cell proliferation assay, BxPc-3H. Type of data set: cell-based. The settings on record: Homo sapiens; pancreatic cancer, 72 hrs; >10 = no effect; read-out: IC50 BxPc-3H (Table 1). The procedure:
as §1

Data set [4] relates to MDA-MB-231 xenograft tumors. Briefly: MDA-MB-231 xenograft tumor growth in nude mice. It counts as in vivo. The settings on record: i.p., 2.5, 7.5 and 12.5 mg/kg.
Where [5] appears, read: Homo sapiens, MCF7, Example 4 numbering, 72 h, >10 = no effect, read-out: IC50 MCF-7 (Table 5).
[6] abbreviates: Homo sapiens, MDA-MB-231, Example 4 numbering, 72 h, >10 = no effect, read-out: IC50 MDA-MB-231 (Table 5).

Like-named read-outs stand apart in the source and are kept apart here.

On to `O=C(Nc1ccc2c(c1)S(=O)(=O)C=C2)c1cc(-c2ccccc2)nc2ccccc12` [Compound 5], for which, in [1], the inhibition at 5 µM is around 65%. Moreover, the IC50 in the data set on MCF-7 (Homo sapiens, MCF7, 72 h, read-out: IC50 MCF-7 (Table 4)) was found to be 0.1 µM; with MCF-7 (Homo sapiens, MCF7, 72 h, read-out: IC50 MCF-7 (Table 5)), 0.1 µM; in the data set with Panc-1 (Homo sapiens, PANC-1, 72 h, read-out: IC50 Panc-1 (Table 4)), 0.26 µM; in the data set with Panc-1 (Homo sapiens, PANC-1, 72 h, read-out: IC50 Panc-1 (Table 5)) it was 0.26 µM; with MDA-MB-231 (Homo sapiens, MDA-MB-231, 72 h, read-out: IC50 MDA-MB-231 (Table 4)) it was 0.29 µM; in the data set on MDA-MB-231 (Homo sapiens, MDA-MB-231, 72 h, read-out: IC50 MDA-MB-231 (Table 5)), 0.29 µM. In addition, the half-maximal inhibitory concentration (IC50) was determined as 1.25 µM with AsPC1 (Homo sapiens, ASPC1, 72 h, read-out: IC50 AsPC1 (Table 4)) and 1.25 µM in the data set on AsPC1 (Homo sapiens, ASPC1, 72 h, read-out: IC50 AsPC1 (Table 5)). Besides, the “signs of toxicity at 150 mg/kg” value in data set [2] is given as “did not show significant signs of toxicity”.
In the case of `O=C(Nc1ccc2c(c1)S(=O)(=O)C=C2)c1ccnc(-c2ccccc2)c1` [Compound 22, N-(1,1-Dioxo-1H-1λ^6-benzo[b]thiophen-6-yl)-2-phenyl-isonicotinamide], the melting point fell in the range of 285 to 286 °C. In addition, the “antiproliferative activity in words (Example 4)” value (“antiproliferative activity” below) in data set [3] is reported as “low micromolar IC50 values”. For the same molecule, in the data set on MCF-7 (setting [5]), the IC50 stood at 3.78 µM. The half-inhibitory concentration (IC50) with Panc-1 (Homo sapiens, PANC-1, Example 4 numbering, 72 h, >10 = no effect, read-out: IC50 Panc-1 (Table 5)) was 3.35 µM. Moreover, the IC50 in the data set on MDA-MB-231 (setting [6]) was 1.85 µM. The 50% inhibitory concentration (IC50) in the data set with AsPC1 (Homo sapiens, ASPC1, Example 4 numbering, 72 h, >10 = no effect, read-out: IC50 AsPC1 (Table 5)) turned out to be 1.3 µM.
Take `NCCOc1ccc(Cl)cc1C(=O)Nc1ccc([N+](=O)[O-])cc1Cl` [HJC-1-52, 2-(2-Aminoethoxy)-5-chloro-N-(2-chloro-4-nitrophenyl)benzamide]: the 50% inhibitory concentration (IC50) amounted to 0.91 µM in the data set with MCF-7 (Homo sapiens, MCF7, 72 h, read-out: IC50 MCF-7 (Table 1)); 2.37 µM with MDA-MB-361; 1.08 µM with Panc-1 (Homo sapiens, PANC-1, pancreatic cancer, 72 hrs, >10 = no effect, read-out: IC50 Panc-1 (Table 1)); 1.64 µM with MDA-MB-231 (Homo sapiens, MDA-MB-231, ER-negative breast cancer, 72 hrs, >10 = no effect, read-out: IC50 MDA-MB-231 (Table 1)); 1.07 µM in the data set on BxPc-3H; 1.9 µM in the data set on AsPC1 (Homo sapiens, ASPC1, pancreatic cancer, 72 hrs, >10 = no effect, read-out: IC50 AsPC1 (Table 1)). Further, in the data set on MCF-7 (MCF-7, 48 hr, μM concentrations), the “inhibition on breast cancer cell proliferation (FIG. 1)” value is listed as “significant inhibition”. Also, the “growth of xenograft tumors (FIG. 3)” value in [4] was “significantly suppresses tumor growth”.
With “Quinoline-3-carboxylic acid (1,1-dioxo-1H-1λ^6-benzo[b]thiophen-6-yl)amide [Compound 23]”, in [3], the “antiproliferative activity” value is reported as “moderate to low antiproliferative activity”. Moreover, the IC50 with MCF-7 (Example 4 numbering, 72 h, >10 = no effect, read-out: IC50 MCF-7 (Table 5)) worked out at 2.97 µM; with Panc-1 (Example 4 numbering, 72 h, >10 = no effect, read-out: IC50 Panc-1 (Table 5)), 7.92 µM; in the data set on MDA-MB-231 (Example 4 numbering, 72 h, >10 = no effect, read-out: IC50 MDA-MB-231 (Table 5)) it was 6.21 µM; in the data set with AsPC1 (Example 4 numbering, 72 h, >10 = no effect, read-out: IC50 AsPC1 (Table 5)) it was 6.97 µM.
Molecule `O=C(Nc1ccc2c(c1)S(=O)(=O)C=C2)c1ccncc1` [Compound 21, N-(1,1-Dioxo-1H-1λ^6-benzo[b]thiophen-6-yl)isonicotinamide] had a melting point of 251 to 252 °C. Further, the “antiproliferative activity” value in [3] is reported as “moderate to low antiproliferative activity”. Also, the half-maximal inhibitory concentration (IC50) in the data set with MCF-7 (setting [5]) is above 10 µM. Also, in the data set with MDA-MB-231 (setting [6]), the IC50 is above 10 µM.
